Test results published in US20150284689A1, “STRATEGY FOR ENGINEERING VARIOUS 3D TISSUES, ORGANOIDS AND VASCULATURE” (THE REGENTS OF THE UNIVERSITY OF CALIFORNIA, priority 2012, published 2015).

Columns and labels:
cultured mesenchyme = experiment: cultured isolated mesenchyme, induction/differentiation; format: cell-based; settings: isolated mesenchyme cultured in vitro
[1] = tested on: isolated ureteric bud, Wolffian duct bud; experiment: isolated ureteric bud / Wolffian duct culture in biocompatible matrix, branching morphogenesis; format: cell-based; settings: isolated UB/WD separated from MM, in Matrigel/collagen gel
Source text: This isolated cell culture system can serve as a powerful assay system since it directly assesses the effect of soluble factors on cell morphogenesis and tubulogenesis.
As discussed herein, the disclosure provides methods and compositions whereby isolated budding epethelia (e.g., UBs, WDs, or UBs and WDs) can be co-cultured and stimulated by extrinsic factors to induce branching. These branching buds can then be combined with a tissue specific mesenchymal cell population to develop a desired tissue (e.g., combined with metanephric mesenchyme to produce kidney tissue). For example, whole isolated intact UB, WD, or UB and ND (cleanly separated from surrounding MM) can be induced to undergo branching morphogenesis in vitro in a manner similar to UB, WD, or UB and WD culture. Suspension of the isolated UBs, WDs, or UBs and WDs within, or on, a natural or artificial biocompatible substrate (e.g., Matrigel/collagen gel) and when exposed to a mixture of mesenchyme-cultured media augmented with GDNF, results in the isolated unbranched UB, WD, or UB and WD rapidly forming a polarized, extensively branched structure with an internal lumen. […] This modulation is typically branch-promoting, elongation promoting, or branch-inhibiting.
The culture system and methods of the disclosure provide toe ability to propagate the isolated UB, WD, or UB and WD in vitro through several generations. For example, isolated stem cells, UB, WD, or any combination thereof are cultured in vitro and induced to undergo branching morphogenesis in the presence of BSN-CM or pleiotrophin and GDNF or pleiotrphin, FGF1, and GDNF. After 8 days, the cultured bud is subdivided into approximate 3rds and re-suspended within a suitable biocompatible matrix (matrigel/collagen gel). This 2nd generation bud is further subdivided after another 8 days of culture and the 3rd generation bud is cultured for 8 days (thus yielding at least 9 subdivided buds from one progenitor bud) (e.g., see FIG. 9A-B). These subsequent clonal generations of cultured UB, WD, or UB and WD retain the ability of the progenitor bud to induce mesenchyme upon in vitro recombination. The buds also retained the capacity to form cohesive conduits with the mesenchymally-derived tubules that they induced. Thus, the disclosure provides the ability to develop and propagate a clonal, expanded, and long-lived colony of ureteric bud, Wolffian duct bud, or ureteric and Wolffian duct buds, derived from a single progenitor bud that retains the properties of the progenitor. Using similar techniques with the MM, it is possible to develop colonies of mesenchyme derived from a single progenitor mesenchyme that can then be recombined with a propagated UB, WD, or UB and WD.

MDCK and mIMCD cells = settings: three-dimensional cultures of MDCK and mIMCD cells; cited from earlier work

Row | Molecule | effect on branching morphogenesis of isolated UB, WD [1] | also measured
1 | LIF: leukemia-inhibitory factor, isolated from UB, WD conditioned media | – | effect on cultured mesenchyme (mesenchymal-to-epithelial transformation, survival, differentiation) (cultured mesenchyme): induce mesenchymal-to-epithelial transformation of cultured mesenchyme
2 | Endostatin | selectively inhibits branching of the UB, WD, or UB and WD | –
3 | HGF: Hepatocyte growth factor | – | formation of branching tubular structures with lumens (MDCK and mIMCD cells): induce the formation of branching tubular structures with lumens
4 | FGF1: fibroblast growth factor-1 | induced the formation of elongated stern cells, UB, ND, or any combination thereof branching stalks | –
5 | FGF2: growth factor present in UB/WD conditioned media | – | effect on cultured mesenchyme (mesenchymal-to-epithelial transformation, survival, differentiation) (cultured mesenchyme): appear to promote survival but not differentiation of mesenchyme
6 | FGF7: fibroblast growth factor-7 (protein, UniProt P21781 32-194, looked up) Fibroblast growth factor 7: CNDMTPEQMATNVNCSSPERHTRSYDYMEGGDIRVRRLFCRTQWYLRIDKRGKVKGTQEMKNNYNIMEIRTVAVGIVAIKGVESEFYLAMNKEGKLYAKKECNEDCNFKELILENHYNTYASAKWTHNGGEMFVALNQKGIPVRGKKTKKEQKTAHFLPMAIT | induced amorphous buds displaying nonselective proliferation with little distinction between stalks and ampullae | –
7 | pleiotrophin: polypeptide in active morphogenetic fraction of BSN-CM; fibroblast proliferative and neurite outgrowth-promoting factor (protein, UniProt P21246 33-168, looked up) Pleiotrophin: GKKEKPEKKVKKSDCGEWQWSVCVPTSGDCGLGTREGTRTGAECKQTMKTQRCKIPCNWKKQFGAECKYQFQAWGECDLNTALKTRTGSLKRALHNAECQKTVTISKPCGKLTKPKPQAESKKKKKEGKKQEKMLD | induces branching morphogenesis of the whole ureteric bud, Wolffian duct bud, or ureteric and Wolffian duct bud | –
